Source: publication PMC13489962, “Small-molecule modulation of β-arrestins” (Nature, 2026)

How the values were obtained:
βARR1 P133A = target: T1, βARR1 P133A (Rattus norvegicus, UniProt P29066, P133A); experiment: ITC binding to βARR1 mutant P133A; details: 25 °C
T1 construct: βARR1 or βARR2 construct, with their C terminus truncated (at amino acid 393 or 394, respectively); GST (pGEX4T1) (N, cleaved yes); made in house; host or cells: E. coli BL21 (DE3) pLysS
Method: (§1) The expression and purification of β-arrestins have been described previously[44],[62]–[64]. In brief, E. coli BL21 (DE3) pLysS cells (New England Biolabs: C2527I) carrying pGEX4T1-Rattus norvegicus βARR1 or βARR2 construct, with their C terminus truncated (at amino acid 393 or 394, respectively), were cultured in Terrific Broth (Teknova) medium at 37 °C. After OD600 reached 0.6–0.8, the cells were induced with 0.1 mM isopropyl-β-D-thiogalactopyranoside (IPTG) at 18 °C overnight. Bacteria were collected by centrifugation (4,000 rpm), and cell pellets were resuspended in lysis buffer (20 mM HEPES, pH 8, 150 mM NaCl, 10% glycerol, 1 mM EDTA, 0.2 mM dithiothreitol (DTT), 1 mM phenylmethylsulfonyl fluoride, and 1 mM benzamidine) at 4 °C for 1 h. […] Eluted fractions were analysed by SDS–PAGE, pooled, concentrated using 30 kDa MWCO Amicon Ultra-15 Centrifugal Filter devices, flash-frozen in liquid nitrogen, and stored in aliquots at −80 °C. […] Protein concentrations for each protein were determined by ultraviolet absorption at 280 nm and extinction coefficients estimated using the ExPASy ProtParam tool[67].
(§2) ITC measurements were performed on a MicroCal iTC200 system at 25 °C. […] Protein concentrations were determined by spectrophotometry at 280 nm, using extinction coefficients calculated from each protein sequence via the ProtParam program. […]

βARR1 Y249A = target: T2, βARR1 Y249A (Rattus norvegicus, UniProt P29066, Y249A); experiment: ITC binding to βARR1 mutant Y249A
T2 construct: βARR1 or βARR2 construct, with their C terminus truncated (at amino acid 393 or 394, respectively); GST (pGEX4T1) (N, cleaved yes); made in house; host or cells: E. coli BL21 (DE3) pLysS
T2 sequence (P29066 1-393 Y249A): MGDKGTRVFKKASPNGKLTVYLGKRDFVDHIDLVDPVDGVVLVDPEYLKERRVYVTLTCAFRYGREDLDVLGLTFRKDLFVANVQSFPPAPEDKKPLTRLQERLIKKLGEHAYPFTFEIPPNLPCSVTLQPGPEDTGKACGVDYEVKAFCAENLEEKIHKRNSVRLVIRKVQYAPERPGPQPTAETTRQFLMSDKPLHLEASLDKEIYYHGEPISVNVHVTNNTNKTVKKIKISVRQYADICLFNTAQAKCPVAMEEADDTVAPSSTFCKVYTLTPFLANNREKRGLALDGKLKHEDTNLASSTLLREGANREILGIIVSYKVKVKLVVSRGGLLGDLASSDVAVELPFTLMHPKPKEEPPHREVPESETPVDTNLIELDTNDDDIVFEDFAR
Method: as §1, §2

T1 sequence (P29066 1-393 P133A): as the sequence (P29066 1-393 Y249A) above, with P133A, A249Y counted along it

C=C1C(=O)[C@]23[C@H](O)[C@H]1CC[C@H]2[C@@]12CO[C@]3(O)[C@@H](O)[C@@H]1C(C)(C)CC[C@@H]2O [Cmpd-5, (1S,4aR,5S,6S,6aR,9S,11aS,11bS,14R)-1,5,6,14-tetrahydroxy−4,4-dimethyl-8-methylenedecahydro-1H-6,11b-(epoxymethano)-6a,9-methanocyclohepta[a]naphthalen-7(8H)-one]
Kd (βARR1 P133A): 1 ± 0.4 µM | Kd fold over WT, βARR1 Y249A (βARR1 Y249A): 10.6 fold | Kd (βARR1 Y249A; 25 °C): 3.8 ± 0.9 µM
